The target of series [1] is wt HIV-1 IN (Human immunodeficiency virus type 1 group M subtype B, UniProt P12497). As to conditions: read-out: IC50, inhibition with two blunt-ended DNA molecules in SC; cited from earlier work.
Series [2] addresses Q148H IN (Human immunodeficiency virus type 1 group M subtype B, UniProt P12497, Q1295H). In kind it is biochemical, HIV-1. As to conditions: IC50 Q148H vs IC50 wt IN.
The target of series [3] is HIV-1 synaptic complex (SC) (Human immunodeficiency virus type 1 group M subtype B, UniProt P12497). Put plainly: Trapping of SC and H-SC on native agarose gels. In kind it is biochemical. As to conditions: wt IN 20 nM, U5 DNA 0.5 nM, 2 h at 37°C, native agarose gel.
For series [4], the system named is HIV-1. As to conditions: in 50% normal human serum; cited from earlier work.
Series [5] concerns wt IN-DNA complex. Conditions: cited from earlier work.
Series [6] deals with N155H IN-DNA complex. Conditions: cited from earlier work.
The target in series [7] is N155H IN (Human immunodeficiency virus type 1 group M subtype B, UniProt P12497, N1302H). It counts as biochemical, HIV-1. Conditions: IC50 N155H vs IC50 wt IN.

Structures are written as SMILES. pIC50: −log10 of the molar value.

For orientation: pIC50 means −log10 of the IC50, conventionally taken in molar units.

As for `O=C(NCc1ccc(F)cc1)c1nc(N2CCCCS2(=O)=O)c2cccnc2c1O` [L-870,810], the pIC50 in series [1] was about 7.49.
On to `CCN1C[C@H](C)n2c(c(O)c3c(=O)n(Cc4ccc(F)c(Cl)c4)nc(C(=O)NC)c32)C1=O` [MK-2048], for which the “Fold change in IC50 for FS products, Q148H IN relative to wt IN (resistance)” value in series [2] is listed as 2 fold. The “Inhibitor concentration at which trapped SC and H-SC were first detected” value (shortened to “Inhibitor concentration”) in series [3] was at least 10 nM. In series [4], the “Antiviral activity IC95” value was 41 nM. Further, in series [5], the “Dissociation half-life from wt IN-DNA complex” value is about 32 h. The “Dissociation half-life from N155H IN-DNA complex” value in series [6] was about 4 h.
In the case of `Cc1nnc(C(=O)NC(C)(C)c2nc(C(=O)NCc3ccc(F)cc3)c(O)c(=O)n2C)o1` [RAL, raltegravir], the “Dissociation half-life from wt IN-DNA complex” value in series [5] was 7.3 h. For the same molecule, in series [6], the “Dissociation half-life from N155H IN-DNA complex” value is given as about 0.7 h.
For `O=C(O)C(=O)/C=C(\O)c1ccc2c(c1)c(=O)c(/C(O)=C/C(=O)C(=O)O)cn2Cc1ccc(F)cc1` [RDS 1997], the “Inhibitor concentration” value in series [3] is at least 50 nM.
Turning to `O=C(O)C(=O)C=C(O)c1cn(Cc2ccc(F)cc2)c2cc(N3CCCC3)ccc2c1=O` [RDS 2197], the “Fold change in IC50 for FS products, N155H IN relative to wt IN (resistance)” value in series [7] turned out to be 1.3 fold. Further, the “Inhibitor concentration” value in series [3] is on record as at least 250 nM.
